Measured values as given in PubChem BioAssay AID602234 (The Scripps Research Institute Molecular Screening Center, 2012).
Calls of active or inactive are those of the source. How the calls were made is not given here.

Test: NCOA3 reporter inhibition potency – cell-based, luminescence, counter-screen for SRC1 inhibitor project, dose response (AID 602234);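 further: HEK293 cells co-transfected with pGL4.31 reporter and pBIND-SRC3 fusion vector; potency for inhibition of reporter luminescence with Gossypol as full inhibition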
Settings: transfected HEK293 cells, counter-screen luciferase reporter

| SMILES | IC50 |
| --- | --- |
| C=CCOc1ccc(/C=C2\SC(=S)N(CCC(=O)O)C2=O)cc1 | 3.47 µM |
| COc1ccc(CNc2ncc(-c3ccc(F)cc3)n2C)c2ccccc12 | 11.6 µM (inactive) |
| COc1ccc(Cc2nnc(SCc3ccc([N+](=O)[O-])cc3)o2)cc1 | 5.53 µM |
| Fc1cccc(CSc2nnc3ccc(-c4ccncc4)nn23)c1 | > 35.8 µM (inactive) |
| COc1cc2c(cc1OC)C(NC(=O)C(F)(F)F)CNC2=O (stereo unspecified) | 2.62 µM |
| CCN1CCN(C(=S)c2ccc(-c3ccccc3)cc2)CC1 | 4.62 µM |
| CNc1cccnc1C=NNC(N)=S | 0.522 µM |
| COc1ccccc1/C=C\C(=O)NCC(=O)N/N=C/c1cccc(OC)c1O | 12.9 µM (inactive) |
| Cc1ccc(/C=C2\SC(=S)N(CCCC(=O)NC3CCCC3)C2=O)cc1 | 1.58 µM |
| O=C(Nc1nc(-c2ccccn2)cs1)c1cccc(S(=O)(=O)N2CCOCC2)c1 | > 12 µM (inactive) |
| CCn1c(Oc2ccc(F)cc2)nc2c1c(=O)n(C)c(=O)n2C | 3.24 µM |
| Cc1nn(C(C)(C)C)c(C)c1/C=N/OC(=O)Nc1ccc(Cl)c(Cl)c1 | 2.09 µM |
| Cc1ccc(NC(=O)NC2CC(=O)N(c3ccc4c(c3)OCCO4)C2)cc1C (stereo unspecified) | 1.08 µM |
| O=C(Nc1cccc2c1CCCC2)c1cc([N+](=O)[O-])ccc1Cl | 3.47 µM |
| CCCCCCCC[n+]1c(C)n(-c2ccccc2)c2ccc(NC(C)=O)cc21 | 4.36 µM |
| COc1ccc(-n2cnc(N)c2C(=O)c2cccc([N+](=O)[O-])c2)cc1 | 3.87 µM |
| O=C(N/N=C/c1ccccc1O)/C(=C/c1ccccc1)CCO | 5.52 µM |
| COC(=O)N(NC(=O)C(O)(CCC(C)C)CCC(C)C)c1ccccc1 | > 35.9 µM (inactive) |
| N#Cc1c(-c2ccccc2)c(C#N)c2nc3ccccc3n2c1N | 21.9 µM (inactive) |
| NC(=S)NN=Cc1nccc2c(N)cccc12 | 4.45 µM |
| Cc1ccc(S(=O)(=O)NC(CC(C)C)C(=O)NCC(c2ccco2)N2CCCCC2)cc1 (stereo unspecified) | 3.11 µM |
| C=CCn1c(O)c(C(C)=NCc2cc(OC)cc(OC)c2)c(=O)[nH]c1=O | 1.02 µM |

| SMILES | IC50 |
| --- | --- |
| CCOc1ccccc1-n1c(SCC(=O)Nc2ccccc2C(=O)O)nc2ccccc2c1=O | 9.64 µM |
| Nc1nc(CCl)nc(Nc2cccc3ccccc23)n1 | 3.61 µM |
| CCOC(=O)CSc1cc(-c2ccccc2)nc2ncnn12 | > 35.9 µM (inactive) |
| CC(=O)/C(N=Nc1ccc2c(c1)OCCO2)=C(\C)O | 3.11 µM |
| Cc1cc(C)nc(SCc2ccc(C(=O)N/N=C/c3cccc(O)c3O)cc2)n1 | 4.72 µM |
| CC(C)(C)c1cc(C(=O)N/N=C/c2ccc(O)cc2)n(-c2ccccc2)n1 | 27.1 µM (inactive) |
| CC[C@@]1(O)C(=O)OCc2c1cc1n(c2=O)Cc2cc3c(NC(=O)CN)cccc3nc2-1 | 1.05 µM |
| COC(=O)c1sc2cnccc2c1N | 8.34 µM |
| COc1ccc(-c2cc(=O)oc3c(C)c(O)c(CN(C)C)cc23)cc1 | 12.1 µM (inactive) |
| CCCS(=O)(=O)c1c(S(=O)(=O)CCC)c2c(C)cccn2c1C(=O)N/N=C/c1cc(O)cc(O)c1 | 10.2 µM (inactive) |
| NC(=S)NN=Cc1ccc(OC(=O)COc2cc(Cl)c(Cl)cc2Cl)cn1 | 7.06 µM |
| CCOc1cccc(/C=N/NC(=O)c2cccnc2)c1O | 9.67 µM |
| Cc1ccc2occ(/C=N/NC(=O)[C@@H](N)Cc3ccccc3)c(=O)c2c1 | 6.9 µM |
| c1cc2c(cn1)cnc1cscc12 | 4.51 µM |
| Nc1ccc(Oc2ccccc2-c2ccccc2)cc1 | 7.34 µM |
| Cc1cc(/C=C2\Cc3ccccc3C2=O)c(C)n1-c1ccccc1 | 8.76 µM |
| CCc1c(C)nc2c(C)cccc2c1SCCC#N | 13.6 µM (inactive) |
| CCCCC(=O)Nc1cccn2ncnc12 | 10.9 µM (inactive) |
| Cc1ccc2occ(/C=N/NC(=O)c3ccncc3)c(=O)c2c1 | 15.3 µM (inactive) |
| Cn1c(=O)c2[nH]c(COc3ccc(C(C)(C)C)cc3)nc2n(C)c1=O | 3.85 µM |
| CCOC(=O)CC(=O)CSc1nccc(-c2cccnc2)n1 | 18.4 µM (inactive) |
| COc1cc(C(=O)NC(=S)NNC(=O)c2cnccn2)cc(OC)c1OC | 3.58 µM |

| SMILES | IC50 |
| --- | --- |
| COc1ccc(C(O)(C(C)C)C(CN2CCOCC2)c2ccc(Cl)cc2)cc1 (stereo unspecified) | 13.4 µM (inactive) |
| O=C(CSc1nc(-c2cccs2)cc(C(F)(F)F)n1)Nc1cc(OCC(F)(F)C(F)F)cc([N+](=O)[O-])c1 | > 35.9 µM (inactive) |
| COc1cc2c(cc1OC)C(C)N(C(=O)c1cccc([N+](=O)[O-])c1)CC2 (stereo unspecified) | 7.27 µM |
| Cc1ccc(O)c(Nc2ncnc3ccc([N+](=O)[O-])cc23)c1 | 3.59 µM |
| COc1cc2c3c([nH]c2cc1F)C(=O)NCC3 | 3.73 µM |
| CC(C)n1c(SCC(=O)Nc2nc3c(s2)CCCC3)nc2c1c(=O)n(C)c(=O)n2C | 5.86 µM |
| CCOc1ccc(-c2noc(CCC(=O)O)n2)cc1 | 15.2 µM (inactive) |
| CCc1nc(N)nc(N)c1-c1ccc(Cl)c([N+](=O)[O-])c1 | 0.95 µM |
| Cc1cccc(C)c1-n1nnnc1C(c1cccs1)N1CCC2(CC1)C(=O)NCN2c1ccccc1 (stereo unspecified) | 18.9 µM (inactive) |
| CCN(c1ccccc1)S(=O)(=O)c1cc(C(=O)Nc2ccc(Br)cc2)ccc1F | 6.6 µM |
| CN(C)C(=O)c1ccc(-c2n[nH]c(=O)c3ccccc23)cc1 | 5.67 µM |
| Cc1nc2sc(C(N)=O)c(N)c2c(C)c1CC(=O)c1ccccc1 | 2.63 µM |
| CCOC(=O)c1c(NC(=O)C(C)N2CCN(C(=O)c3ccco3)CC2)sc2c1CCCC2 (stereo unspecified) | 9.89 µM |
| Cc1ccc2nc(C(F)(F)F)c(C#N)c(N)c2c1 | 5.13 µM |
| COC(=O)c1cccc2c1-c1ccccc1/C2=N/O | 2.57 µM |
| CC(=O)NC(c1cc(Cl)c2cccnc2c1O)C(C)C (stereo unspecified) | 6.32 µM |
| NS(=O)(=O)c1ccc(Nc2nc(-c3cccnc3)cs2)cc1 | 6.23 µM |
| O=C(CCC(=O)Nc1ccc(Br)cc1)N/N=C/c1ccccc1O | 4.33 µM |
| O=C1NCCc2c1[nH]c1ccc([N+](=O)[O-])cc21 | 8.25 µM |
| NC(=O)c1cc(Sc2ccccc2)nc2ccccc12 | 10.9 µM (inactive) |
| C=CCn1c(Oc2ccccc2F)nc2c1c(=O)n(C)c(=O)n2C | 3.36 µM |
| Cc1ccc(NC(=O)CCC(=O)N/N=C/c2ccc(O)cc2O)cc1 | 13.5 µM (inactive) |
